Reference: ChEMBL document CHEMBL3120140, “Balgacyclamides, antiplasmodial heterocyclic peptides from Microcystis aeruguinosa EAWAG 251” (J Nat Prod, 2014)

Columns and labels:
[1] = tested on: L6; assay: Cytotoxicity against rat L6 cells after 72 hrs by Alamar blue assay; format: cell-based; conditions: L6, 72 h
[2] = tested on: Leishmania donovani; assay: Antileishmanial activity against Leishmania donovani MHOM-ET-67/L82; format: functional, organism-based
[3] = tested on: Trypanosoma cruzi; assay: Antitrypanosomal activity against Trypanosoma cruzi Tulahuen C4; format: functional, organism-based
[4] = tested on: Trypanosoma brucei rhodesiense; assay: Antitrypanosomal activity against Trypanosoma brucei rhodesiense STIB 900 after 72 hrs by Alamar blue assay; format: functional, organism-based; conditions: STIB 900, 72 h
[5] = tested on: Plasmodium falciparum; assay: Antiplasmodial activity against chloroquine-resistant Plasmodium falciparum K1 infected in human RBC after 48 hrs by [3H]-hypoxanthine incorporation assay; format: functional, organism-based

SMILES | IC50 [1] [µM] | IC50 [2] [µM] | IC50 [3] [µM] | IC50 [4] [µM] | IC50 [5] [µM]
CC[C@H](C)[C@H]1NC(=O)[C@H]2N=C(O[C@@H]2C)[C@H](C(C)C)NC(=O)[C@H]([C@@H](C)O)NC(=O)[C@@H](C)NC(=O)c2csc1n2 | > 150 | 28 | > 150 | 51 | 8.2
CC[C@H](C)[C@H]1NC(=O)[C@H]2N=C(O[C@@H]2C)[C@H](C(C)C)NC(=O)[C@H]2N=C(O[C@@H]2C)[C@@H](C)NC(=O)c2csc1n2 | > 150 | > 150 | > 150 | 59 | 9
